According to patent US9045431B2, “Processes for the preparation of 5-HT2C receptor agonists” (Arena Pharmaceuticals, Inc., priority 2010, dated 2015):
“Also recorded” adds a separate entry of the source.

Columns and labels:
[1] = cited from earlier work; for reported side effect: in some patients
[2] = Dynamic moisture sorption (DMS); format: physicochemical; conditions: for DMS result (hygroscopicity / form conversion): isotherm 25° C., 10% RH to 90% or 95% RH
Procedure: Dynamic moisture-sorption (DMS) studies were conducted using a dynamic moisture-sorption analyzer, VTI Corporation, SGA-100. Samples were prepared for DMS analysis by placing 5 mg to 20 mg of a compound or a salt thereof in a tared sample holder. The sample was placed on the hang-down wire of the VTI balance. A drying step was run, typically at 40° C. and 0.5-1% RH for 1-2 h. The isotherm temperature is 25° C. Defined % RH holds typically ranged from 10% RH to 90% RH or 95% RH, with intervals of 10 to 20% RH. A % weight change smaller than 0.010% over a specified number of minutes (typically 10-20), or up to 2 h, whichever occurs first, is required before continuing to the next % RH hold. The water content of the sample equilibrated as described above was determined at each % RH hold.

[3] = cited from earlier work
[4] = Competitive slurry experiments / solution-mediated phase transformation (thermodynamic stability of crystal forms); format: physicochemical; conditions: for relative thermodynamic stability among the anhydrous polymorphs: ambient / room temperature
Source text: The thermodynamic relationships between the Compound 1 hydrochloride salt hemihydrate Form III and the anhydrous polymorphs of Compound 1 hydrochloride salt were established by competitive slurry experiments in acetonitrile and acetone at various aw, values.
At the critical aw, a given anhydrous form and Compound 1 hydrochloride salt hemihydrate Form III will have equal solubility and can coexist in equilibrium. Below the critical aw, the anhydrous form is more thermodynamically stable, thus less soluble. Above the critical water activity, Compound 1 hydrochloride salt hemihydrate Form III is more thermodynamically stable, thus less soluble. Solids from the competitive slurry experiments were identified by PXRD. Slurries with known aw values were used instead of humidity chambers because solution-mediated phase transformations (SMPTs) are much faster than vapor-mediated phase transformations, especially near the critical aw. […] FIG. 16 illustrates the critical aw of form Compound 1 hydrochloride salt hemihydrate Form III, with respect to Compound 1 hydrochloride salt Form I, and Compound 1 hydrochloride salt, IV.
For enantiotropic polymorphs, the temperature that marks the point at which two polymorphs have the same thermodynamic stability is called the transition temperature (Tt).

[5] = pivotal phase 3 program, treated for up to two years, fraction of patients
[6] = pivotal phase 3 program, up to two years
[7] = second phase 3 trial, top quartile

Compound: CC(C)CC(N(C)C)C1(c2ccc(Cl)cc2)CCC1 (stereo not drawn) [Sibutramine]
- reported side effect [1]: raised blood pressure

Compound: C[C@H]1CNCCc2ccc(Cl)cc21.C[C@H]1CNCCc2ccc(Cl)cc21.Cl.Cl.O [(R)-8-Chloro-1-methyl-2,3,4,5-tetrahydro-1H-3-benzazepine Hydrochloride Hemihydrate Form III]
- change in crystalline form by PXRD after the DVS cycle ([2]; after DVS cycle): no change
- water adsorbed in DMS ([2]; at 90% RH): less than 0.5 wt %
- DMS result (hygroscopicity / form conversion) [2]: substantially non-hygroscopic
- DMS result (hygroscopicity / form conversion) ([2]; listed as Compound 1 Hydrochloride Salt Hemihydrate, Form III): FIG. 11: non-hygroscopic

Compound: C[C@H]1CNCCc2ccc(Cl)cc21.Cl [lorcaserin, (R)-8-Chloro-1-methyl-2,3,4,5-tetrahydro-1H-3-benzazepine hydrochloride]
- adverse event that exceeded the placebo rate by 5% ([3]; clinical program): generally mild or moderate, transient headache
- depression or suicidal ideation ([3]; clinical program): no signal
- heart rate and blood pressure ([3]; clinical program): went down
- quality of life ([3]; clinical program): improved
- risk of cardiac valvulopathy ([3]; clinical program): did not increase
- secondary endpoints (body composition, lipids, cardiovascular risk factors, glycemic parameters) ([3]; compared to placebo): improved compared to placebo
- excess body weight lost ([3]; first phase 3 trial, based on a normal BMI of 25, fraction of excess body weight): about one-third
- average weight lost, of their weight ([3]; pivotal phase 3 program, on average): about 8%
- patients who achieved at least 5% weight loss [3, 5]: About two-thirds
- patients who achieved at least 10% weight loss [3, 5]: over one-third
- tolerability [3, 6]: excellent tolerability
- weight loss (in words) [3, 6]: significant weight loss
- average weight loss, top quartile of patients [3, 7]: 35 pounds
- average weight loss, top quartile of patients, of body weight [3, 7]: 16%

Compound: CCN[C@@H](C)Cc1cccc(C(F)(F)F)c1 [d-fenfluramine]
- cardiac valve defects, fraction of patients ([1]; reports that led to withdrawal by the FDA in 1998): up to one third

Compound: CCCCCCCCCCC[C@@H](C[C@@H]1OC(=O)[C@H]1CCCCCC)OC(=O)[C@H](CC(C)C)NC=O [Xenical™, Orlistat]
- reported side effect [1]: gastrointestinal distress

Compound: C[C@H]1CNCCc2ccc(Cl)cc21.Cl [Compound 1 hydrochloride salt Form IV, (R)-8-Chloro-1-methyl-2,3,4,5-tetrahydro-1H-3-benzazepine Hydrochloride Salt Form IV]
- DMS result (hygroscopicity / form conversion) [2]: converting to Compound 1 hydrochloride salt Form III
- DMS result (hygroscopicity / form conversion) ([2]; listed as Compound 1 Hydrochloride Salt Form IV): FIG. 14: Converts to hemihydrate
- relative thermodynamic stability among the anhydrous polymorphs [4]: most stable of the three anhydrous polymorphs; also recorded: more stable than Compound 1 hydrochloride salt Form I
- relative humidity at which the form is not thermodynamically favored over hemihydrate Form III ([4]; ambient temperature): ≥ 20 % RH

Compound: C[C@H]1CNCCc2ccc(Cl)cc21.Cl [Compound 1 hydrochloride salt Form I, (R)-8-Chloro-1-methyl-2,3,4,5-tetrahydro-1H-3-benzazepine Hydrochloride Salt Form I]
- DMS result (hygroscopicity / form conversion) [2]: complete conversion to Compound 1 hydrochloride hemihydrate Form III
- DMS result (hygroscopicity / form conversion) ([2]; listed as Compound 1 Hydrochloride Salt Form I): FIG. 3: Converts to Form III hemihydrate

Compound: C[C@H]1CNCCc2ccc(Cl)cc21.Cl [Compound 1 hydrochloride salt Form II, (R)-8-Chloro-1-methyl-2,3,4,5-tetrahydro-1H-3-benzazepine Hydrochloride Salt Form II]
- DMS result (hygroscopicity / form conversion) [2]: converting to the hemihydrate Form III
- DMS result (hygroscopicity / form conversion) ([2]; listed as Compound 1 Hydrochloride Salt Form II): FIG. 7: Converts to Form III hemihydrate
- relative thermodynamic stability among the anhydrous polymorphs [4]: least stable anhydrous polymorph
